Patent US7585854B2, “Method for treating endometriosis” (Tochigi Institute of Clinical Pathology, priority 2000, dated 2009)
Where a name gives a salt, the structure may show the parent alone.

System: endometriosis model rats
Test: Therapeutic effect in endometriosis model rats (uterine tissue autotransplanted to peritoneum; lesion observed by light and electron microscopy)
Type: in vivo, Sprague-Dawley rats (female)
Details: oral; for invasion of mast cells compared with Comparative Example 1 (non-treated model rats): 0.04 mg/kg bodyweight per day for 6 days from 24 hours after model preparation, lesion sampled at day 7; for therapy of endometriosis (overall conclusion) / apoptosis of fibroblast cells / proliferation of the interstitial cells: 0.04 mg/kg bodyweight per day for 6 days, day 7; for apoptosis of fibroblast cells / proliferation of the interstitial cells: light and electron microscope
Protocol: Endometriosis model rats were prepared by the method described in Michael W. Vernon et al., FERTILITY AND STERILITY, Vol. 44, No. 5, November 1985. That is, endometriosis model rats were prepared as follows: Sprague-Dawley rats (female) of 8 weeks old were acclimatized for 2 weeks under 12 hours light-dark condition. From each rat, right uterine horn was excised under general anesthesia with sevoflurane and ketamine hydrochloride, and a tissue piece sizing 5 mm×5 mm was prepared therefrom. The tissue piece was subjected to autotransplantation such that the endometrium surface is attached to peritoneum.
Seven days after the preparation of the model rats, at which the model lesion reached its peak, the peritoneum tissue including the graft up to the abdominal muscle was excised to obtain a lesion sample. From the thus obtained samples, light microscope specimens (hematoxylin-eosin staining, toluidine blue staining) and electron microscope specimens (uranium-lead double staining) were prepared, and observations with an light microscope (the magnifications were 4× for hematoxylineosin-stained specimens, and 20× for toluidine blue-stained specimens, respectively), and with an electron microscope were carried out as in Reference Example 1.
Endometriosis model rats were prepared by the same method as in Comparative Example 1. From 24 hours after the preparation of the endometriosis model rats, an antiallergic agent (trademark “Alesion Tablet” produced by Boehringer Ingelheim) containing epinastine hydrochloride as the active component was orally administered to the rats for 6 days at a dose of 0.04 mg/kg bodyweight per day in terms of epinastine hydrochloride. Seven days after the preparation of the model rats, at which the model lesion reached its peak, the peritoneum tissues including the graft up to the abdominal muscle were excised to obtain lesion samples.
The same procedures as in Example 1 were repeated except that an antiallergic agent containing ketotifen fumarate as the active component (trademark “Zaditen” produced by Ciba-Geigy Japan Limited) was administered in place of the antiallergic agent containing epinastine hydrochloride as an active component.
The same procedures as in Example 1 were repeated except that an antiallergic agent containing pranlukast hydrate as the active component (trademark “ONON CAPSULE” produced by ONO PHARMACEUTICAL CO.,LTD.) was administered in place of the antiallergic agent containing epinastine hydrochloride as an active component, and that the administration dose per day was 9 mg/kg in terms of pranlukast hydrate.

Compound	invasion of mast cells compared with Comparative Example 1 (non-treated model rats)	therapy of endometriosis (overall conclusion)	apoptosis of fibroblast cells	proliferation of the interstitial cells
NC1=NCC2c3ccccc3Cc3ccccc3N12 (centres unmarked) [epinastine, epinastine hydrochloride]	apparently reduced	effective	observed	prominent inhibition
CN1CCC(=C2c3ccccc3CC(=O)c3sccc32)CC1 [ketofetin, ketotifen fumarate]	apparently reduced	effective	observed	prominent inhibition
